{
  "source": "PubChem BioAssay AID602215",
  "about": "(Sanford-Burnham Center for Chemical Genomics, 2012)",
  "note": "pIC50: −log10 of the molar value. Active and inactive are the calls of the source.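 Rule for the calls: active = IC50 of 20 µM or lower; inactive = the rest.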",
  "data": [
    {"test_system": "HL-1 cardiomyocytes, H2O2 injury, ATP luminescence, 2 h", "assay": "H2O2-induced HL-1 cell death suppression – ATP luminescence, dose response (AID 602215);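 note: potency is for protection so actives raise ATP signal against peroxide damage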", "values": [
      {"smiles": "COc1cc(-c2cc(C(=O)Nc3cccc(C(C)=O)c3)c3ccccc3n2)cc(OC)c1OC", "pIC50": 5.40},
      {"smiles": "COC(=O)c1cc2ccccn2c2c(C(=O)OC)c(C(=O)OC)cc1-2", "IC50": "> 79 µM (inactive)"},
      {"smiles": "O=C(Nc1cc(S(=O)(=O)N2CCOCC2)ccc1N1CCCCC1)c1cc(-c2ccccn2)nc2ccccc12", "pIC50": 5.44},
      {"smiles": "CCOc1ccccc1NC(=O)c1oc2ccccc2c1NC(=O)C1CCCO1", "note": "(configuration not stated)", "IC50": "> 79 µM (inactive)"},
      {"smiles": "COc1cc(NC(=O)c2ccco2)c(OC)cc1NC(=O)c1cc(OC)c(OC)c(OC)c1", "IC50": "21 µM (inactive)"},
      {"smiles": "N#Cc1c(-c2ccco2)cc(-c2cccnc2)nc1N", "IC50": "41.2 µM (inactive)"},
      {"smiles": "NC(=O)COc1ccc2oc(=O)cc(-c3cc4ccccc4o3)c2c1", "pIC50": 4.74},
      {"smiles": "O=[N+]([O-])c1ccc(Nc2nc(N/N=C/c3cccc(F)c3)nc(N3CCCC3)n2)cc1", "IC50": "> 79 µM (inactive)"},
      {"smiles": "COc1ccc(C(=O)O/N=C(/c2ccccc2)c2ccncc2)cc1OC", "IC50": "> 79 µM (inactive)"},
      {"smiles": "CC(=O)Nc1ccc(C(=O)N/N=C/c2ccccc2OC(=O)c2ccc(Cl)cc2)cc1", "IC50": "> 79 µM (inactive)"},
      {"smiles": "O=C(NCC(=O)N(Cc1cccs1)C(C(=O)NC1CCCCC1)c1ccco1)c1ccco1", "note": "(configuration not stated)", "IC50": "> 79 µM (inactive)"},
      {"smiles": "O=C(CN1CCN(c2ccccn2)CC1)Nc1ccc([N+](=O)[O-])cc1C(=O)Nc1ccccc1F", "IC50": "> 79 µM (inactive)"},
      {"smiles": "O=C(N/N=C/c1ccccn1)c1cc(-c2cccc3ccccc23)n[nH]1", "IC50": "> 79 µM (inactive)"},
      {"smiles": "COc1cc(-c2cc(NC(C)=O)c3ncc(-c4cc(OC)c(OC)c(OC)c4)n3c2)cc(OC)c1OC", "pIC50": 5.83},
      {"smiles": "Cc1[nH]c2ccccc2c1/C=N/NC(=O)c1cc(-c2ccccc2)n[nH]1", "IC50": "> 79 µM (inactive)"},
      {"smiles": "COc1ccc(/C=N/NC(=O)c2ccc(COc3cccc4cccnc34)cc2)cc1OC", "pIC50": 5.22},
      {"smiles": "COc1cc(/C=N/NC(=O)c2ccccc2)ccc1OS(=O)(=O)c1ccccc1", "IC50": "> 79 µM (inactive)"},
      {"smiles": "Cc1cc(C)c2c(N)c(C(=O)N/N=C/c3cccnc3)sc2n1", "IC50": "> 79 µM (inactive)"},
      {"smiles": "COc1cc(-c2cc(C(=O)Nc3ccccc3N3CCOCC3)c3ccccc3n2)cc(OC)c1OC", "pIC50": 5.37},
      {"smiles": "COc1cc(C(=O)N/N=C/c2sc(N3CCOCC3)nc2-c2ccccc2)cc(OC)c1OC", "IC50": "48.4 µM (inactive)"},
      {"smiles": "COc1cccc(-c2cnc3c(NC=O)cc(-c4cc(OC)c(OC)c(OC)c4)cn23)c1", "IC50": "> 79 µM (inactive)"},
      {"smiles": "Cc1ccc(C=NNc2nc3c([nH]2)c(=O)n(C)c(=O)n3C)cc1", "IC50": "> 79 µM (inactive)"},
      {"smiles": "C=CC[C@@H](CC(=O)NCCO)C(=O)NC[C@H](OC(=O)[C@@H](CC=C)Cc1ccc(F)cc1)c1ccccc1", "IC50": "> 79 µM (inactive)"},
      {"smiles": "COc1ccc(-c2cc(C(=O)N(C)Cc3nc4ccccc4c(=O)[nH]3)c3ccccc3n2)cc1OC", "IC50": "21.3 µM (inactive)"},
      {"smiles": "COc1cc(OC)cc(-c2cc3nc(C)c(CCC(=O)Nc4nc(C)cs4)c(C)n3n2)c1", "IC50": "> 79 µM (inactive)"},
      {"smiles": "CCOC(=O)C1CCN(c2cc3c(cc2NC(=O)c2ccc(OC)c(OC)c2)n(C)c(=O)n3C)CC1", "IC50": "> 79 µM (inactive)"},
      {"smiles": "O=C(C(=O)N(Cc1ccccc1)Cc1ccccc1)c1c(-c2ccccc2)[nH]c2ccccc12", "IC50": "> 79 µM (inactive)"},
      {"smiles": "CC(=O)Nc1cccc(-c2cc(NC=O)c3ncc(-c4ccc(C(C)=O)cc4)n3c2)c1", "pIC50": 5.21},
      {"smiles": "COc1cccc(-c2cnc3c(NC=O)cc(-c4cc(C)c(O)c(C)c4)cn23)c1", "pIC50": 5.34},
      {"smiles": "COc1cc(-c2cc3nc(NCCc4ccc(S(N)(=O)=O)cc4)ccn3n2)cc(OC)c1OC", "pIC50": 4.82},
      {"smiles": "COc1nc(N/N=C/c2cc3c(cc2Br)OCO3)nc(N2CCOCC2)n1", "IC50": "> 79 µM (inactive)"},
      {"smiles": "COc1cc(-c2cc(NC=O)c3ncc(-c4ccc(C(C)=O)cc4)n3c2)cc(OC)c1OC", "pIC50": 5.39},
      {"smiles": "Cc1[nH]c2ccccc2c1/C=N/NC(=O)c1cc(-c2cccs2)[nH]n1", "IC50": "> 79 µM (inactive)"},
      {"smiles": "COc1ccc(C(C(=O)NCc2ccccc2)N(Cc2ccco2)C(=O)c2snc(C(N)=O)c2N)cc1", "note": "(configuration not stated)", "IC50": "44.1 µM (inactive)"},
      {"smiles": "COc1cccc(-c2cnc3c(NC=O)cc(-c4cccc(NC(C)=O)c4)cn23)c1", "IC50": "> 79 µM (inactive)"},
      {"smiles": "CS(=O)(=O)c1ccc(-c2cnc3c(NC=O)cc(-c4ccsc4)cn23)cc1", "pIC50": 5.06},
      {"smiles": "NC(=O)c1nsc(C(=O)N(c2ccccc2)C(C(=O)NC2CCCC2)c2ccc3ncccc3c2)c1N", "note": "(configuration not stated)", "pIC50": 5.26},
      {"smiles": "COc1ccc(C(=O)Nc2cccc(NC(=O)c3ccc(OC)c(OC)c3)n2)cc1OC", "IC50": "> 79 µM (inactive)"},
      {"smiles": "COc1ccc(-c2cc(-c3nnc(COC(=O)C4CC4C)o3)c3ccccc3n2)cc1OC", "note": "(configuration not stated)", "pIC50": 5.46},
      {"smiles": "CC(C)(C)NC(=O)c1cc(NC(=O)c2cccs2)cc(NC(=O)c2cccs2)c1", "IC50": "> 79 µM (inactive)"},
      {"smiles": "C=CCOC(=O)C1=C[C@H](c2cn(C(C)=O)c3ccccc23)C[C@H](OCc2ccc(CO)cc2)O1", "IC50": "> 79 µM (inactive)"},
      {"smiles": "COc1ccc(COc2cc(-c3cccc(OC)c3)nc3ccc(NC(=O)c4cccnc4)cc23)cc1", "pIC50": 5.34},
      {"smiles": "COc1cc(-c2cc(NC(C)=O)c3ncc(-c4ccc(F)cc4)n3c2)cc(OC)c1OC", "IC50": "> 79 µM (inactive)"},
      {"smiles": "COc1cc(/C=C(\\C#N)c2nc3ccc(C)cc3[nH]2)c([N+](=O)[O-])cc1OC", "IC50": "> 79 µM (inactive)"},
      {"smiles": "COc1ccc(C(=O)Nc2cccc(/C(C)=N/NC(=O)c3ccc([N+](=O)[O-])c(C)c3)c2)cc1OC", "IC50": "> 79 µM (inactive)"},
      {"smiles": "O=C(CNC(=O)c1nc[nH]c1C(=O)NCC(=O)OCc1ccccc1)OCc1ccccc1", "IC50": "> 79 µM (inactive)"},
      {"smiles": "CCOC(=O)c1c(C)[nH]c(C)c1C(=O)COc1ncnc2cc([N+](=O)[O-])ccc12", "IC50": "> 79 µM (inactive)"}
    ]}
  ]
}
